Values joined by “and” are separate entries in the source; they are usually repeats but may differ in a detail not shown here. Equal entries are not always repeated.
Test system: 885512-296-R-J2-PDC complex spheroid growth, % test/control
Assay: Anticancer human tumor 885512-296-R-J2-PDC patient-derived breast carcinoma cell line growth inhibition [Asc]
Details: for viability, T/C: stronger effect = lower value
Procedure, shortened: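 Concentration series start at each agent's clinical Cmax, or at 10 microM when none is established, and drop in half-log steps; agents are applied alone or together to complex spheroids built with HUVEC and hMSC.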

[1] = curve of first compound, second compound 0.1 µM
[2] = curve of first compound, second compound 0.316 µM
[3] = curve of first compound, second compound 1 µM
[4] = second compound 0.1 µM, first compound 0.0316 µM
[5] = second compound 0.1 µM, first compound 0.1 µM
[6] = second compound 0.316 µM, first compound 0.0316 µM
[7] = second compound 0.316 µM, first compound 0.1 µM
[8] = second compound 1 µM, first compound 0.0316 µM
[9] = second compound 1 µM, first compound 0.1 µM
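Also: spheroids exposed to compounds for seven days.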
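For viability, T/C in this document: 100% = DMSO vehicle control wells.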

SMILES: CCN1CCN(Cc2ccc(Nc3ncc(F)c(-c4cc(F)c5nc(C)n(C(C)C)c5c4)n3)nc2)CC1
- viability, T/C (compound 0.00316 µM): 89.4% and 83.8% and 88.3%
- viability, T/C (compound 0.01 µM): 107% and 91.6% and 85.9%
- viability, T/C (compound 0.0316 µM): 92.8% and 77.8% and 104%
- viability, T/C (compound 0.1 µM): 80.7% and 77.2% and 93%
- viability, T/C (compound 0.316 µM): 79.6% and 71.2% and 79.3%
- viability, T/C (compound 1 µM): 61.1% and 65% and 73.3%
- IC50 (curve of compound): > 1000 nM

SMILES: Cn1ncnc1[C@H]1c2n[nH]c(=O)c3cc(F)cc(c23)N[C@@H]1c1ccc(F)cc1 + CNC(C)C(=O)NC1CN(S(=O)(=O)c2cccc(S(=O)(=O)N3CCC4CCC(C(=O)NC(c5ccccc5)c5ccccc5)N4C(=O)C(NC(=O)C(C)NC)C3)c2)CCC2CCC(C(=O)NC(c3ccccc3)c3ccccc3)N2C1=O
- IC50 (curve of first compound, second compound 0.01 µM): 26.2 nM
- IC50 (curve of first compound, second compound 0.0316 µM): 17.6 nM
- IC50 [1]: 23.4 nM
- IC50 [2]: 15.3 nM
- IC50 [3]: 21.3 nM
- viability, T/C (second compound 0.01 µM, first compound 0.000316 µM): 86%
- viability, T/C (second compound 0.01 µM, first compound 0.001 µM): 71.1%
- viability, T/C (second compound 0.01 µM, first compound 0.00316 µM): 73.5%
- viability, T/C (second compound 0.01 µM, first compound 0.01 µM): 63.4%
- viability, T/C (second compound 0.01 µM, first compound 0.0316 µM): 47.7%
- viability, T/C (second compound 0.01 µM, first compound 0.1 µM): 26.2%
- viability, T/C (second compound 0.0316 µM, first compound 0.000316 µM): 98.5%
- viability, T/C (second compound 0.0316 µM, first compound 0.001 µM): 96.5%
- viability, T/C (second compound 0.0316 µM, first compound 0.00316 µM): 92.3%
- viability, T/C (second compound 0.0316 µM, first compound 0.01 µM): 60.5%
- viability, T/C (second compound 0.0316 µM, first compound 0.0316 µM): 40.1%
- viability, T/C (second compound 0.0316 µM, first compound 0.1 µM): 31.2%
- viability, T/C (second compound 0.1 µM, first compound 0.000316 µM): 102%
- viability, T/C (second compound 0.1 µM, first compound 0.001 µM): 100%
- viability, T/C (second compound 0.1 µM, first compound 0.00316 µM): 90.8%
- viability, T/C (second compound 0.1 µM, first compound 0.01 µM): 70.5%
- viability, T/C [4]: 42.9%
- viability, T/C [5]: 22.4%
- viability, T/C (second compound 0.316 µM, first compound 0.000316 µM): 98%
- viability, T/C (second compound 0.316 µM, first compound 0.001 µM): 100%
- viability, T/C (second compound 0.316 µM, first compound 0.00316 µM): 94.6%
- viability, T/C (second compound 0.316 µM, first compound 0.01 µM): 56%
- viability, T/C [6]: 42.4%
- viability, T/C [7]: 27.6%
- viability, T/C (second compound 1 µM, first compound 0.000316 µM): 108%
- viability, T/C (second compound 1 µM, first compound 0.001 µM): 97.1%
- viability, T/C (second compound 1 µM, first compound 0.00316 µM): 98.2%
- viability, T/C (second compound 1 µM, first compound 0.01 µM): 65.6%
- viability, T/C [8]: 42.5%
- viability, T/C [9]: 26.2%

SMILES: O=C(c1cc(Cc2n[nH]c(=O)c3ccccc23)ccc1F)N1CCN(C(=O)C2CC2)CC1 + Cc1c(S(C)(=O)=O)c(-c2cc(F)cc(N3CCN(c4ccc(NS(=O)(=O)c5ccc(NC(CCN6CCC(C(=O)OCCCP(=O)(O)O)CC6)CSc6ccccc6)c(S(=O)(=O)C(F)(F)F)c5)cc4)CC3)c2)c(-c2ccc(Cl)cc2)n1C(C)C
- IC50 [1]: 4750 nM
- IC50 [2]: 4350 nM
- IC50 [3]: 3760 nM
- IC50 (curve of first compound, second compound 3.16 µM): 3670 nM
- IC50 (curve of first compound, second compound 10 µM): 3290 nM
- viability, T/C [4]: 90.8%
- viability, T/C [5]: 105%
- viability, T/C (second compound 0.1 µM, first compound 0.316 µM): 95.5%
- viability, T/C (second compound 0.1 µM, first compound 1 µM): 91%
- viability, T/C (second compound 0.1 µM, first compound 3.16 µM): 67.9%
- viability, T/C (second compound 0.1 µM, first compound 10 µM): 17.4%
- viability, T/C [6]: 96.4%
- viability, T/C [7]: 96.7%
- viability, T/C (second compound 0.316 µM, first compound 0.316 µM): 104%
- viability, T/C (second compound 0.316 µM, first compound 1 µM): 96.6%
- viability, T/C (second compound 0.316 µM, first compound 3.16 µM): 64.2%
- viability, T/C (second compound 0.316 µM, first compound 10 µM): 13.1%
- viability, T/C [8]: 83.3%
- viability, T/C [9]: 98.8%
- viability, T/C (second compound 1 µM, first compound 0.316 µM): 104%
- viability, T/C (second compound 1 µM, first compound 1 µM): 92%
- viability, T/C (second compound 1 µM, first compound 3.16 µM): 56.8%
- viability, T/C (second compound 1 µM, first compound 10 µM): 11.7%
- viability, T/C (second compound 3.16 µM, first compound 0.0316 µM): 101%
- viability, T/C (second compound 3.16 µM, first compound 0.1 µM): 106%
- viability, T/C (second compound 3.16 µM, first compound 0.316 µM): 99%
- viability, T/C (second compound 3.16 µM, first compound 1 µM): 88.1%
- viability, T/C (second compound 3.16 µM, first compound 3.16 µM): 55.7%
- viability, T/C (second compound 3.16 µM, first compound 10 µM): 11.7%
- viability, T/C (second compound 10 µM, first compound 0.0316 µM): 125%
- viability, T/C (second compound 10 µM, first compound 0.1 µM): 113%
- viability, T/C (second compound 10 µM, first compound 0.316 µM): 97.5%
- viability, T/C (second compound 10 µM, first compound 1 µM): 90.3%
- viability, T/C (second compound 10 µM, first compound 3.16 µM): 47.5%
- viability, T/C (second compound 10 µM, first compound 10 µM): 9.81%

SMILES: C=C(F)C(=O)N1CCN(c2nc(OCC3CCCN3C)nc3c2CCN(c2cccc4cccc(Cl)c24)C3)CC1CC#N (configuration not stated) + CCN1C(C(=O)NC23CCC(C(=O)O)(CC2)CC3)C(c2cccc(Cl)c2F)C2(C(=O)Nc3cc(Cl)ccc32)C12CCCCC2
- IC50 (curve of first compound, second compound 0.03 µM): 2290 nM
- IC50 (curve of first compound, second compound 0.0949 µM): 2460 nM
- IC50 (curve of first compound, second compound 0.3 µM): 2240 nM
- IC50 (curve of first compound, second compound 0.949 µM): 1900 nM
- IC50 (curve of first compound, second compound 3 µM): 1050 nM
- viability, T/C (second compound 0.03 µM, first compound 0.0316 µM): 96.3%
- viability, T/C (second compound 0.03 µM, first compound 0.1 µM): 110%
- viability, T/C (second compound 0.03 µM, first compound 0.316 µM): 101%
- viability, T/C (second compound 0.03 µM, first compound 1 µM): 110%
- viability, T/C (second compound 0.03 µM, first compound 3.16 µM): 28.6%
- viability, T/C (second compound 0.03 µM, first compound 10 µM): 0.11%
- viability, T/C (second compound 0.0949 µM, first compound 0.0316 µM): 118%
- viability, T/C (second compound 0.0949 µM, first compound 0.1 µM): 117%
- viability, T/C (second compound 0.0949 µM, first compound 0.316 µM): 120%
- viability, T/C (second compound 0.0949 µM, first compound 1 µM): 107%
- viability, T/C (second compound 0.0949 µM, first compound 3.16 µM): 34%
- viability, T/C (second compound 0.0949 µM, first compound 10 µM): 0.38%
- viability, T/C (second compound 0.3 µM, first compound 0.0316 µM): 94%
- viability, T/C (second compound 0.3 µM, first compound 0.1 µM): 95.1%
- viability, T/C (second compound 0.3 µM, first compound 0.316 µM): 98.2%
- viability, T/C (second compound 0.3 µM, first compound 1 µM): 102%
- viability, T/C (second compound 0.3 µM, first compound 3.16 µM): 29.5%
- viability, T/C (second compound 0.3 µM, first compound 10 µM): 0.1%
- viability, T/C (second compound 0.949 µM, first compound 0.0316 µM): 69%
- viability, T/C (second compound 0.949 µM, first compound 0.1 µM): 72%
- viability, T/C (second compound 0.949 µM, first compound 0.316 µM): 76.9%
- viability, T/C (second compound 0.949 µM, first compound 1 µM): 90.1%
- viability, T/C (second compound 0.949 µM, first compound 3.16 µM): 28.6%
- viability, T/C (second compound 0.949 µM, first compound 10 µM): 0.1%
- viability, T/C (second compound 3 µM, first compound 0.0316 µM): 43%
- viability, T/C (second compound 3 µM, first compound 0.1 µM): 43.3%
- viability, T/C (second compound 3 µM, first compound 0.316 µM): 51.5%
- viability, T/C (second compound 3 µM, first compound 1 µM): 67.5%
- viability, T/C (second compound 3 µM, first compound 3.16 µM): 19.8%
- viability, T/C (second compound 3 µM, first compound 10 µM): 0.15%

Source: PubChem BioAssay AID1963447 (Molecular Pharmacology Branch, DTP, NCI, 2024)
